For orientation: EC50 means the concentration at which the effect is half-maximal.

Consider twelve molecules from BindingDB's records for doi:10.7270/Q24M92ZV (Nmmlsc, 2009).

This assay has as its target Ras-related C3 botulinum toxin substrate 1 (Mus musculus, UniProt P63001). The assay is described as follows: activated mutant Rac1 GTP binding inhibitors, SAR follow-up, biochemical, additional analogs, multiplex bead flow cytometry (AID 2039). For orientation: A flow cytometer gives signals particle by particle.

On to `O=C1Nc2c(Cl)cccc2C1=C1Nc2ccccc2C1=O`, for which the EC50 was 30 µM.

The molecule `O=C1Nc2c(Br)cccc2C1=C1Nc2ccccc2C1=O` yielded an EC50 of 27.6 µM. In the case of `O=C1Nc2c(F)cccc2C1=C1Nc2ccccc2C1=O` it was 30 µM; in that of `O=C1NC(=O)/C(=C2/C(=O)Nc3ccccc32)N1`, 11.6 µM; in that of `O=C1Nc2ccc(Br)cc2C1=C1Nc2ccccc2C1=O`, 12.2 µM.

In the case of `O=C1Nc2ccccc2/C1=C1/Nc2ccccc2C1=O` [2-[(3Z)-2-oxo-2,3-dihydro-1H-indol-3-ylidene]-2,3-dihydro-1H-indol-3-one], it took 30 µM to reach a half-maximal effect (EC50). In the case of `O=C1N=c2ccccc2=C1c1[nH]c2ccccc2c1NO` [3-[3-(hydroxyamino)-1H-indol-2-yl]-2-indolone] it was 30 µM; in that of `O=C1N=c2ccc(Br)cc2=C1c1[nH]c2ccccc2c1NO` [5-bromanyl-3-[3-(oxidanylamino)-1H-indol-2-yl]indol-2-one], 32.7 µM; in that of `O=C1N=c2c(Br)cccc2=C1c1[nH]c2ccccc2c1NO` [7-bromanyl-3-[3-(oxidanylamino)-1H-indol-2-yl]indol-2-one], 30 µM. `O=C1N=c2c(Cl)cccc2=C1c1[nH]c2ccccc2c1NO` [7-chloro-3-[3-(hydroxyamino)-1H-indol-2-yl]-2-indolone] had an EC50 of 30 µM. In the case of `O=C1N=c2c(F)cccc2=C1c1[nH]c2ccccc2c1NO` [7-fluoro-3-[3-(hydroxyamino)-1H-indol-2-yl]-2-indolone] it was 31.6 µM; in that of `O=C1NC(=S)N/C1=C1\C(=O)Nc2ccccc21` [(3Z)-3-(5-oxo-2-sulfanylideneimidazolidin-4-ylidene)-1H-indol-2-one], 7 µM.
